For orientation: AUC means concentration integrated over time. One may read the AUC(0-inf) as the area under the concentration-time curve extrapolated to infinity. As usually defined, the clearance is the rate of elimination divided by the concentration.

The values below come from patent US11358977B2, “Deuterated pyridone amides and prodrugs thereof as modulators of sodium channels” (VERTEX PHARMACEUTICALS INCORPORATED, priority 2017, dated 2022).

Data set [1] can be described thus: In vitro microsomal metabolic stability assay, human. Type of data set: in vitro ADME. The conditions noted are these: human liver microsomes 0.25 mg/mL, 1.0 μM compound, NADPH. As to the method: (§1) Materials. Rat, Dog, Monkey and Human liver microsomes (20 mg/mL) were obtained from Xenotech, LLC (Lenexa, Kans.). P-nicotinamide adenine dinucleotide phosphate, reduced form (NADPH), magnesium chloride (MgCl2), and dimethyl sulfoxide (DMSO) were purchased from Sigma-Aldrich.
(§2) Methods. […] The 10 mM stock solutions were diluted to 100 μM in DMSO. In each cluster polypropylene tube, 190.7 μL of 100 mM phosphate buffer, pH 7.4 was added, then 2.5 μL of liver mocrosomes (20 mg/mL, rat, dog, monkey or human) was added, then a 2 μL aliquot of the 100 μM test compound was added, and the mixture was pre-warmed for 10 minutes. Reactions were initiated by addition of 4.8 μL of pre-warmed NADPH solution (100 mM in 100 mM phosphate buffer). The final reaction volume was 200 μL and contained 0.25 mg/mL rat, dog, monkey or human liver microsomes, 1.0 μM test compound, and 2.4 mM NADPH in 0.1 M potassium phosphate buffer, pH 7.4. The reaction mixtures were incubated at 37° C., and the reactions were quenched at 0, 15, 30 and 60 minutes by adding 200 μL of ice-cold quench solution (ACN:MeOH:0.1% formic acid in water 2:2:1) containing internal standard, n=3 per time point. The tubes were centrifuged and supernatants were analyzed for amounts of the test compound remaining by LC-MS/MS. The HPLC system included a Phenomenex Luna C8 column, 3 micron, 2 mm diameter×30 mm long eluted with a gradient mobile phase consisting of 0.1% formic acid in water or in acetonitrile. The analytes were detected by MS/MS with Electrospray Ionization (ESI) in the mode of multiple reaction monitoring (MRM). The injection volume was 10 μL.

Data set [2] can be described thus: In vitro microsomal metabolic stability assay, monkey. Format: in vitro ADME. The note with it: monkey liver microsomes 0.25 mg/mL, 1.0 μM compound, NADPH. As for the experimental part: as §1, §2
For orientation: Liver microsomes are a subcellular fraction often used to study metabolism.

Data set [3] in a line: In vitro microsomal metabolic stability assay, rat. Type of data set: in vitro ADME. The note with it: rat liver microsomes 0.25 mg/mL, 1.0 μM compound, NADPH. As to the method:
as §1, §2

A short description of data set [4]: In vitro microsomal metabolic stability assay, dog. Format: in vitro ADME. The note with it: dog liver microsomes 0.25 mg/mL, 1.0 μM compound, NADPH. As for the experimental part:
as §1, §2

Data set [5] in a line: In vivo pharmacokinetic study, rat IV. On the set-up: species or system Male Sprague Dawley rats. The conditions noted are these: male, Sprague Dawley, plasma, rat IV bolus, cassette, nominal 0.5 mg/kg. As to the method:
General Procedures. Concentrations of the test compounds in plasma were determined using a high performance liquid chromatography/tandem mass spectrometry (HPLC/MS/MS) method. The test compounds along with the internal standard (IS) were extracted from plasma (20 μL) by direct protein precipitation with acetonitrile (1:25 ratio of plasma/acetonitrile). After centrifugation, the supernatant extract (10 μL) was injected onto the LC/MS/MS system. The HPLC system included a Phenomenex Luna C8 column, 3 micron, 2 mm diameter×30 mm long eluted with a gradient mobile phase consisting of 0.1% formic acid in water or in acetonitrile. The analytes were detected by MS/MS with Electrospray Ionization (ESI) in the mode of multiple reaction monitoring (MRM). The lower limit of quantitation (LLOQ) was 1.00 ng/mL. The linear range of the assay was from 1 to 3000 ng/mL. The assay accuracy was within 20% of the nominal values.
Plasma concentration-time profiles of the test compounds were analyzed by noncompartmental pharmacokinetic methods using PK module in Watson, Version 7.4.2 (Thermo Scientific). Pharmacokinetic parameters including AUCa11, AUC0-∞, C0, Cl, Vss and t1/2 were determined.
Descriptive statistical data of plasma concentrations and pharmacokinetic parameter estimates were calculated, including the mean, standard deviation (SD), and coefficient of variation (% CV) using Microsoft Excel 2010.
Rat IV Study. Compounds 7 and 10 were administered simultaneously in a single intravenous bolus to Male Sprague Dawley rats (n=3) via jugular cannula. The nominal dose of each compound was 0.5 mg/kg. The cassette dosing solution was formulated in D5W with additives Animals had free access to food and water before and after dosing. Blood samples (approximately 0.25 mL each) were collected via a carotid artery catheter prior to dosing and at 0 (predose), 5 min, 10 min, 0.25, 0.5, 1, 2, 4, 8, 12, 24 hours post dose. Each blood sample was collected into a tube that was kept on wet ice and contained potassium EDTA as the anticoagulant. Plasma was separated and stored at approximately −70° C. until analysis.
Plasma samples and dosing solutions were analyzed using a liquid chromatography/tandem mass spectrometry (LC/MS/MS) method to determine the concentrations of Compounds 7 and 10 with a lower limit of quantitation (LLOQ) of 1.00 ng/mL. The average plasma concentrations of Compounds 7 and 10 are plotted in FIG. 5 and are also presented in tabular form in Table 5.
Plasma concentration vs. time data were subjected to noncompartmental pharmacokinetic (PK) analysis. To determined the measured dose of each compound, the dose formulation (50 μL) was aliquoted into a cluster tube at the time of dosing. Then 450 μL of DMSO was added to the tube to dilute it 10×. Then the diluted dosing solution was spiked into rat blank plasma with 100× dilution. The resulting plasma sample was analyzed along with the plasma samples collected from rats that were dosed with the compounds, using the same LC/MS/MS method.

A short description of data set [6]: In vitro hepatocyte assay: prodrug conversion to parent compound. Format: in vitro ADME, human. As for the experimental part: Materials. Cryopreserved human hepatocytes and Cryopreserved Hepatocytes Recovery Medium (CHRM™) were purchased from Life Technologies (Carlsbad, Calif.). Gibco™ Leibovitz's L-15 Medium was purchased from Fisher Scientific (Waltham, Mass.).
Methods. 10 mM stock solutions containing Compound 20 and Compound 13 were prepared in DMSO. Equal volumes of the two 10 mM stock solutions were mixed to form a combination stock solution containing Compound 20 and Compound 13 in concentrations of 5 mM each. The 5 mM combination stock solution was diluted to a concentration of 50 μM of each compound in DMSO (“50 μM combination stock”). Cryopreserved human hepatocytes were thawed in CHRM™ medium and prepared as a suspension in incubation medium (L-15 Medium with supplements containing glucose, HEPES buffer and NaHCO3), with the final cell concentration of 0.625 million cells/mL. In a 48 well plate, 1 μL of the 50 μM combination stock and then 199 μL of hepatocyte suspension (0.625 million cells/mL) were added to each well. The plate was covered and incubated at 37° C. in an incubator with gentle shaking (50 rpm). The reactions were quenched at 0, 0.25, 0.5, 1 and 2 hours by adding 200 μL of ice-cold quench solution (ACN:MeOH:0.1% aqueous formic acid, 2:2:1) containing internal standard (n=3 per time point). […] LC-MS/MS analysis was conducted using a Phenomenex Luna C8 column (3 micron, 2 mm diameter×30 mm long, at room temperature) eluted with a gradient consisting of mobile phases of 0.1% formic acid in water and 0.1% formic acid in acetonitrile at a total flow rate of 0.6 mL/min and a total run time of 4.5 minutes. The analytes were detected by MS/MS with Electrospray Ionization (ESI) in the mode of multiple reaction monitoring (MRM). The injection volume was 10 μL.

Regarding `Cc1cc(F)ccc1Oc1cc(C(F)(F)F)ccc1C(=O)Nc1cc[nH]c(=O)c1` [Compound 10, 2-(4-fluoro-2-methylphenoxy)-N-(2-oxo-1,2-dihydropyridin-4-yl)-4-(trifluoromethyl)benzamide, reference compound], the “% remaining” value in data set [1] (0 min) is 100%; in data set [1] (15 min) it was 110%; in data set [1] (30 min) it was 105%; in data set [1] (60 min) it was 106%; in data set [2] (0 min), 100%; in data set [2] (15 min), 96.4%. For the same compound, the “% remaining” value in data set [2] (30 min) is 92.4%; in data set [2] (60 min), 91.4%; in data set [3] (0 min) it was 100%; in data set [3] (15 min), 108%; in data set [3] (30 min), 102%; in data set [3] (60 min) it was 87.4%. The “% remaining” value in data set [4] (0 min) came out at 100%; in data set [4] (15 min), 85.9%; in data set [4] (30 min), 85.4%; in data set [4] (60 min), 85.7%. In data set [5] (0.083 hours), the concentration at 0.083 h turned out to be 391 ng/mL. The same compound had a concentration at 0.167 h in data set [5] (0.167 hours) of 349 ng/mL. For the same compound, the concentration at 0.25 h in data set [5] (0.25 hours) was 316 ng/mL. The compound also showed a concentration at 0.5 h in data set [5] (0.5 hours) of 239 ng/mL. The concentration at 1 h in data set [5] (1 hour) was found to be 174 ng/mL. Also, the concentration at 2 h in data set [5] (2 hours) was 111 ng/mL. In data set [5] (4 hours), this compound had a concentration at 4 h of 51.6 ng/mL. In data set [5] (8 hours), this compound displayed a concentration at 8 h of 14.3 ng/mL. In data set [5] (12 hours), this compound gave a concentration at 12 h of 4.27 ng/mL. The compound also yielded an AUC in data set [5] (noncompartmental analysis) of 415 ng·h/mL. This compound had an AUC(0-inf) in data set [5] (noncompartmental analysis) of 422 ng·h/mL. For the same compound, in data set [5] (noncompartmental analysis), the C0 is 245 ng/mL. In data set [5] (noncompartmental analysis), the clearance was 22.1 mL/min/kg. The half-life in data set [5] (noncompartmental analysis) is 2.2 h. Besides, the Vd in data set [5] (noncompartmental analysis, read-out: Vss) turned out to be 3.4 L/kg.
Consider `Cc1cc(F)ccc1Oc1cc(C(F)(F)F)ccc1C(=O)Nc1ccn(COP(=O)(O)O)c(=O)c1` [Compound 20, (4-(2-(4-fluoro-2-methylphenoxy)-4-(trifluoromethyl)benzamido)-2-oxopyridin-1(2H)-yl)methyl dihydrogen phosphate, reference compound], for which the half-life at 0.25 µM in data set [6] (cryopreserved human hepatocytes in suspension, cryopreserved human hepatocytes 0.625 million cells/mL, 37° C., Compounds 20 and 13 co-incubated, read-out: t1/2 in human hepatocytes) was under 0.5 h. Also, the “conversion of prodrug to parent compound” value in data set [6] (human hepatocytes, LC-MS/MS, Compound 20 to Compound 10, Compound 13 to Compound 7) is listed as “fast conversion”. Further, the “% remaining” value in data set [6] (human hepatocytes, time 0 hr) worked out at 100%; in data set [6] (human hepatocytes, time 0.25 hr), 75.1%; in data set [6] (human hepatocytes, time 0.5 hr), 32.7%; in data set [6] (human hepatocytes, time 1 hr), 11.2%; in data set [6] (human hepatocytes, time 2 hr), 11.6%.
